These results are taken from patent US20050090433A1 (priority 2002, published 2005).

Data set [1] relates to N,N′-diacetyl-Lys-D-Ala-D-Ala. The data set can be described thus: ITC of binding to tri-peptide, with and without HSA.
Description: Antibiotics and peptides were dissolved in aqueous buffer (20 mM Na phosphate, 150 mM NaCl, pH 7.4) containing HSA, with gentle stirring immediately before each experiment. Peptide concentrations were determined by weight. […] HSA concentrations were determined by UV absorbance (HSA, ε280=37,700; A280^1%=5.44). Spectra were recorded at room temperature in 1 cm pathlength quartz cuvettes using Shimadzu UV-160A or UV-1601 spectrophotometers, with samples diluted quantitatively with buffer if necessary to give absorbance in the 0.1-1 A range.
Isothermal titration calorimetry was performed using a Microcal VP-ITC instrument at 25° C. and 37° C. using standard operating procedures. […] Samples were degassed gently prior to loading to prevent bubble formation in the calorimeter cell.
The next data set relates to Lys-D-Ala-D-Lactate. The data set can be described thus: ITC of binding to Lys-D-Ala-D-Lactate. The conditions noted are these: absence of serum proteins. The source says:
(§1) Trans. R. Soc. Lond. Ser. A-Math. Phys. Eng. […] Wiley, (1998) p 103-111; and Cooper, A., Curr. Opin. Chem. Biol. (1999) 3, 557-563.

For a further data set, the system named is D-Ala-D-Ala. The data set can be described thus: ITC of binding to dipeptide. The conditions noted are these: absence of serum proteins.
Source text: as §1

Data set [2] in a line: Multimer to monomer population by electrospray ion mass spectroscopy. Particulars: dalbavancin 0.1 mg/ml in 8:2 water:isopropanol; teicoplanin 50 and 100 μg/mL in water. The class given is physicochemical.
Description: Experiments were performed using an Applied Biosystem API III+mass spectrometer equipped with a TurboIonSpray source, a Triple Quadrupole analyzer, operating in positive ion mode.
The mass spectra were obtained in electrospray positive mode on a Finnigan LCQ^Deca ion trap instrument previously tuned and calibrated in electrospray mode using Ultramark 1621, caffeine and MRFA (L-metionyl-arginyl-phenilalanyl-arginine).
The mass spectra were obtained in electrospray positive mode on a Finnigan LCQ^Deca ion trap instrument previous tuned and calibrated in electrospray mode using Ultramark 1621, caffeine and MRFA (L-metionyl-arginyl-phenilalanyl-arginine).
The next data set concerns human α-glycoprotein. The experiment in a line: Protein binding by isothermal titration microcalorimetry. Particulars: protein […]10^−5 M assumed. Background: ITC needs no label: the signal is the heat of the interaction.
The next data set concerns the target Human albumin (Homo sapiens, UniProt P02768). Described as above. The conditions noted are these: for Calculated percent Binding, Human albumin: albumin 6×10^−4 M assumed.
Data set [3] deals with N,N′-diacetyl-Lys-D-Ala-D-Ala. The experiment in a line: ITC, 25 C, with 513 uM HSA.
The target of data set [4] is N,N′-diacetyl-Lys-D-Ala-D-Ala. The experiment in a line: ITC, 25 C, 0 uM HSA.
Data set [5] has as its target N,N′-diacetyl-Lys-D-Ala-D-Ala. The data set can be described thus: ITC, 10 C, 0 uM HSA.

Values joined by “and” are separate entries in the source; they are usually repeats but may differ in a detail not shown here. Equal values may be shown once.

Human albumin, sequence (P02768 25-609): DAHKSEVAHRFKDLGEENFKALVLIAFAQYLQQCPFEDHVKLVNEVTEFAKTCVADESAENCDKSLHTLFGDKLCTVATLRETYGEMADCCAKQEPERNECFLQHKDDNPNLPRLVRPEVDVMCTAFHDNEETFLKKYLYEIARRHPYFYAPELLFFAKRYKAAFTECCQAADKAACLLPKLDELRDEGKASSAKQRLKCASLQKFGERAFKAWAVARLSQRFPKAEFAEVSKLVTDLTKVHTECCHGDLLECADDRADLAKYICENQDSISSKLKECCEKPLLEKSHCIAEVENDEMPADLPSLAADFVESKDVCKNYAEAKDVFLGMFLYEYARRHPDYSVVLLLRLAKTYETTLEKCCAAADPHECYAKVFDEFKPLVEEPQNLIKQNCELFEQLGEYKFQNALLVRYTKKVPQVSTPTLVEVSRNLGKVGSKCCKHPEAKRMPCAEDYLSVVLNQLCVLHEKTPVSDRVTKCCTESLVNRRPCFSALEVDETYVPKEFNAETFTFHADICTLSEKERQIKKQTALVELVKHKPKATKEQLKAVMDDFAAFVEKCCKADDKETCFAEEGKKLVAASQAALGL
Description for Human albumin: (§2) Integrated heat effects, after correction for heats of dilution, were analyzed by non-linear regression using a simple single-site binding model with the standard Microcal ORIGIN software package. Raw data (μcal/sec) for each injection were integrated to give the total heat effect per addition, then divided by amount of injectant to give kcal/mole of injectant. The same integration was applied for control dilution effects, and this was subtracted from the actual titration data. This provided a differential of the binding curve in which the extent of binding is proportional to the total heat liberated (or absorbed). This was then analyzed by non-linear regression methods in terms of various standard binding models.
Description for human α-glycoprotein: as §2

Consider `CN[C@H](CC(C)C)C(=O)N[C@H]1C(=O)N[C@@H](CC(N)=O)C(=O)N[C@H]2C(=O)N[C@H]3C(=O)N[C@H](C(=O)N[C@H](C(=O)O)c4cc(O)cc(O)c4-c4cc3ccc4O)[C@H](O)c3ccc(c(Cl)c3)Oc3cc2cc(c3O[C@@H]2O[C@H](CO)[C@@H](O)[C@H](O)[C@H]2O[C@H]2C[C@](C)(N)[C@H](O)[C@H](C)O2)Oc2ccc(cc2Cl)[C@H]1O` [Vancomycin], for which the Kass in data set [1] (10 °C, [HSA] 0 μM) was 6.90E+05 L M^−1; in [1] (25 °C, [HSA] 0 μM), 3.40E+05 L M^−1 and 3.60E+05 L M^−1; in data set [1] (25 °C, [HSA] 513 μM), 2.90E+05 L M^−1. The “Binding to tri-peptide in the presence of HSA vs absence” value in data set [1] (control ITC experiments) is on record as “comparable to those seen in the absence of HSA”. In addition, the “Binding to Lys-D-Ala-D-Lactate” value in the data set with Lys-D-Ala-D-Lactate is on record as “no evidence of binding”. In addition, in the data set on D-Ala-D-Ala, the “Binding to dipeptide (D-Ala-D-Ala)” value is “no evidence of binding”.

In the case of Teicoplanin, the “Multimers in solution (ESI-MS)” value in data set [2] is given as “does not show multimeric complexes in solution”. Moreover, the “Calculated percent Binding, Human α-glycoprotein” value with human α-glycoprotein (antibiotic 1 μM) was 9.6%; with human α-glycoprotein (antibiotic 10 μM), 9.1%; in the data set with human α-glycoprotein (antibiotic 100 μM), 6.0%. The “Apparent binding affinity Ka, Human albumin” value at Human albumin (25° C., pH 7.4, ± SD of fit) is listed as 0.96 (±0.08) ×10^5 M^−1. The “Calculated percent Binding, Human albumin” value was 98.3% on Human albumin (antibiotic 1 μM), 98.3% on Human albumin (antibiotic 10 μM) and 98.0% on Human albumin (antibiotic 100 μM).

Broadly, the Kd is the equilibrium constant for the complex coming apart. Low readings indicate a tighter complex, high ones a looser complex. Take vancomycin hydrochloride (peptide): the Kd was 3450 nM in [3]; 2940 nM and 2780 nM in [4]; 1450 nM in data set [5]. For the same compound, the ΔH was -10.1 kcal/mol in data set [3]; -10.7 kcal/mol and -12.9 kcal/mol in data set [4]; -9.49 kcal/mol in data set [5]. Further, the ΔS was -8.8 eu in [3]; -10.6 eu and -17.8 eu in data set [4]; -6.8 eu in [5].
